Experimental data from the SangsterLogP compilation.

Row | logP | SMILES
1 | 1.63 | COc1ccccc1N(C)C
2 | 2.8 | Cc1cccc(N(C)C)c1
3 | 1.42 | COc1ccc(N(C)C)cc1
4 | 0.72 | CC(=O)Nc1ccccc1O
5 | -0.12 | CS(=O)(=O)c1ccc(N)cc1
6 | 1.78 | CSc1ccc(O)cc1
7 | 2.92 | COc1ccccc1Oc1ccccc1
8 | 2.45 | O=C(O)Cc1ccc(C(F)(F)F)cc1
9 | 2.26 | Cc1ccccc1C=O
10 | 0.79 | O=Cc1ccc(OCC(=O)O)cc1
11 | 1.59 | N#Cc1ccccc1O
12 | 3.21 | O=C(O)c1ccc(Oc2ccccc2)cc1
13 | 2.46 | Nc1ccccc1Oc1ccccc1
14 | 2.09 | CC(=O)Oc1cccc(C)c1
15 | 0.73 | CC(=O)Nc1cccc(O)c1
16 | 1.45 | CSc1cccc(N)c1
17 | 1.2 | CSc1ccccc1N
18 | 2.74 | CSc1ccc(C(=O)O)cc1
19 | 0.67 | CS(=O)(=O)c1ccc(C(=O)O)cc1
20 | 2.11 | CC(=O)Oc1ccc(C)cc1
21 | 1.73 | CC(=O)Nc1ccccc1C(=O)O

Row | SMILES | logP
22 | Nc1ccc(Oc2ccccc2)cc1 | 2.36
23 | Oc1cccc(-c2ccccc2)c1 | 3.23
